Measured values as given in publication PMC10688702, “The indole motif is essential for the antitrypanosomal activity of N^5-substituted paullones” (PLOS ONE, 2023).

Tests used:
[1] = molecular target: trypanothione synthetase of L. infantum (LiTryS) (Leishmania infantum, UniProt A4I2Z3); test: TryS activity screening assay on recombinant LiTryS; type: biochemical; details: for activity at 30 µM: read-out: LiTryS activity [% at 30 μM]; for IC50: recombinant TryS, errors 2 SD, read-out: LiTryS inhibition [IC50
trypanothione synthetase of L. infantum (LiTryS), sequence (A4I2Z3 entry or part of it): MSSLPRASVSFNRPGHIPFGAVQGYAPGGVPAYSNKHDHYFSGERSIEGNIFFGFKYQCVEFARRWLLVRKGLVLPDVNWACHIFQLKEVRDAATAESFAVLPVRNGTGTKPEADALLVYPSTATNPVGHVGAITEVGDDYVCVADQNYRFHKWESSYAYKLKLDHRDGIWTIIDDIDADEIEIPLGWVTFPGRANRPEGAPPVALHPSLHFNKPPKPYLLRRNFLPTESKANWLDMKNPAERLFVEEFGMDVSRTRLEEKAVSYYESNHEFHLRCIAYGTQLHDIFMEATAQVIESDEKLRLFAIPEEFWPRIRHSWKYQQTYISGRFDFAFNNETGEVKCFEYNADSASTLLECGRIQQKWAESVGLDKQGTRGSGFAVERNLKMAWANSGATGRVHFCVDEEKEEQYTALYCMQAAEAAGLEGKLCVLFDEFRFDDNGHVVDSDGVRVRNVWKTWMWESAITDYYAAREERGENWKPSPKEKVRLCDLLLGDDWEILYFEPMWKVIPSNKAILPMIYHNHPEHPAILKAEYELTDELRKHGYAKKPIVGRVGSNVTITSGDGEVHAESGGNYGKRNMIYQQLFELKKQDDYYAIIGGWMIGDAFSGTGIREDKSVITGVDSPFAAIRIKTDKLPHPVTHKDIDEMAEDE
How it was run: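 N-His-tagged TryS from E. coli, purified by IMAC and SEC; end-point reaction with 150 μM ATP, 2 mM Spd, GSH 0.05 mM (TbTryS) or 0.25 mM (LiTryS), enzyme 3*10^−5 (TbTryS) or 2*10^−5 (LiTryS) μmol*min^-1*mL^-1. Stopped after 15 min with BIOMOL GREEN; A650 activity relative to blank-corrected DMSO control.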

[2] = tested on: bloodstream form of T. b. brucei strain 427; test: Viability assay for T. b. brucei (whole parasite, bioluminescence); type: cell-based; details: 24 h; for T. b. brucei (BS) proliferation [% at 10 μM]: 10 μM compound; for EC50: Trypanosoma brucei, read-out: T. b. brucei (BS) [EC50
Experimental: Viability assay for T. b. brucei. The bloodstream form of the monomorphic T. b. brucei strain 427, cell line 5141313, constitutively and stably expressing an ectopic copy of the Photinus pyralis red-shifted luciferase, was cultured in vitro with HMI-9 medium, supplemented with 10% fetal bovine serum, 10 U/mL penicillin (Gibco), 10 μg/mL streptomycin (Gibco), 0.2 μg/mL bleomycin (Jena Bioscience), 4 μg/mL G418 disulfate salt (Sigma-Aldrich) and 0.2 μg/mL puromycin (Invitrogen), inside a humidified incubator (Thermo Fisher Scientific) with controlled temperature (37°C) and CO2 (5%) in a 25 or 75 cm^2 vented-cap culture-flask. The anti-trypanosomal activity of compounds was evaluated in a 96-well culture plate containing 2.2 μL/well DMSO (negative control) or compounds dissolved in DMSO (1% final concentration), and 220 μL/well of a suspension of 1 × 10^5 parasites/mL. The plates were incubated at 37°C and 5% CO2 for 24 h. Next, each well was transferred to a 96-well black plate, and 20 μL of a solution containing d-luciferin (1.5 mg/mL in PBS glucose 1% w/v) and Triton X-100 (0.05% v/v) was added. Bioluminescence signal was measured in a LUMIstar OPTIMA Microplate luminometer using the following settings: 10 s shaking, 5 s/well acquisition, 0.2 s measurement delay, maximum gain, and 37°C. For the bioluminescence assay, parasite viability was calculated according to the following formula: parasiteviability%=BLcpd-BLblank/BLneg-BLblank*100%
BL refers to the mean of bioluminescence signal corresponding to the tested compound (cpd), the blank (blank, complete media containing 1% v/v DMSO), or the negative control (neg, parasites treated with 1% v/v DMSO). EC50 values were determined from concentration-response curves fitted to a four-parameter sigmoid equation using the GraphPad Prism software (version 6.0). All errors are expressed as one SD, estimated as σ^n-1. For a detailed explanation of the protocol, see Dibello et al..

[3] = tested on: L. infantum amastigotes (intracellular, in J774.A1 macrophages); test: Viability assay for L. infantum amastigotes; type: cell-based; details: Leishmania infantum, J774.A1, 24 h, read-out: L. infantum amastigote viability [% at 20 μM]
How it was run: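 Luciferase-expressing L. infantum metacyclic promastigotes (MHOM/MA/67/ITMAP263) infected J774.A1 murine macrophages at 1:10 for 24 h at 37 °C, 5% CO2. After compound treatment, a further 24 h incubation followed. Percent amastigote viability, in triplicate, was normalised to host-cell density by a propidium iodide correction factor.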

Compound | activity at 30 µM [1] | IC50 [1] | T. b. brucei (BS) proliferation [% at 10 μM] [2] | EC50 [2] | viability at 20 µM [3]
CNCCNC(=O)CN1C(=O)Cc2c([nH]c3ccc(I)cc23)-c2ccc(Cl)cc21 [1f, 2-(3-Chloro-9-iodo-6-oxo-7,12-dihydrobenzo[2,3]azepino[4,5-b]indol-5(6H)-yl)-N-[2-(methylamino)ethyl]acetamide] | 2.2 ± 0.6% | 70 ± 30 nM | 0.0 ± 1.7% | 6400 ± 1700 nM | 72 ± 5%
CNCCNC(=O)CN1C(=O)Cc2c([nH]c3ccc(Cl)cc23)-c2ccc(Cl)cc21 [1g, 2-(3,9-Dichloro-6-oxo-7,12-dihydrobenzo[2,3]azepino[4,5-b]indol-5(6H)-yl)-N-[2-(methylamino)ethyl]acetamide] | 2.2% | 390 ± 60 nM | 0.0 ± 0.3% | 4700 ± 1100 nM | 70 ± 2%
CNCCNC(=O)CN1C(=O)Cc2c([nH]c3ccc(C(F)(F)F)cc23)-c2ccc(Cl)cc21 [1h, 2-(3-Chloro-6-oxo-9-trifluoromethyl-7,12-dihydrobenzo[2,3]azepino[4,5-b]indol-5(6H)-yl)-N-[2-(methylamino)ethyl]acetamide] | 0% | 60 ± 40 nM | 0.9 ± 1.3% | 6600 ± 1100 nM | 93 ± 10%
